According to article PMC5215778, “Molecular Characterization of N-glycan Degradation and Transport in Streptococcus pneumoniae and Its Contribution to Virulence” (PLoS Pathogens, 2017):

What was measured:
SpGH92 [1] = molecular target: T1, SpGH92 (Streptococcus pneumoniae, UniProt A0A0H2US35); experiment: X-ray crystal structure, […] Å; assay type: binding; settings: crystal soaked with α-(1,2)-mannobiose; mannose in +1 subsite, Ca2+ and glycerol bound
T1 construct: gene SP_2145

NgtS [2] = molecular target: T2, NgtS (Streptococcus pneumoniae, UniProt A0A0H2UMY0); experiment: ITC; settings: 20 mM Tris, pH 8.0, 25 °C; 1:1 binding
T2 construct: gene SP_0092; residues 25-491, secretion signal peptide and lipobox removed, C-terminal six-histidine tag, expressed in E. coli BL21 Star (DE3)

SpGH92 [3] = molecular target: T1, SpGH92; experiment: UPLC-MS; assay type: biochemical; settings: 10 mM MOPS pH 7.0, 2 mM CaCl2, room temperature, 16 h, 0.6 μM substrate, 1 μM enzyme
NgtS [4] = molecular target: T2, NgtS; experiment: UV difference titration; settings: read-out: affinity constant; bimolecular binding model with ligand depletion
[5] = molecular target: the molecule itself; experiment: crystal structure; crystals grown in 2.25 M (NH4)2SO4, 0.1 M Bis-Tris pH 5.5, soaked with α-(1,2)-mannobiose; four molecules in the asymmetric unit

T2 sequence (A0A0H2UMY0 25-491): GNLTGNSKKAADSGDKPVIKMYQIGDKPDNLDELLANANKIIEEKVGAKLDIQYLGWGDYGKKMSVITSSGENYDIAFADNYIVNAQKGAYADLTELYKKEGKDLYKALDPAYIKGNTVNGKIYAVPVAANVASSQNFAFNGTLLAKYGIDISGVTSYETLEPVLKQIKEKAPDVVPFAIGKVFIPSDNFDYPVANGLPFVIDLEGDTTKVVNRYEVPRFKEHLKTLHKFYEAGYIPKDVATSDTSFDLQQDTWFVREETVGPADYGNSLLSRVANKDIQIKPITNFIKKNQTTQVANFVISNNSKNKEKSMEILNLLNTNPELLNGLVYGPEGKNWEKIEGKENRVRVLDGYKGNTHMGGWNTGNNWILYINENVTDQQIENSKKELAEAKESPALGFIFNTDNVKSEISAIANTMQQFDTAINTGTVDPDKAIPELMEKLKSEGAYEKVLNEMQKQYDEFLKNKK

## OC[C@H]1OC(O)[C@@H](O)[C@@H](O)[C@@H]1O (some centres unmarked) [mannose]
SpGH92 [1]
  X-ray crystal structure, 2.15 Å: electron density consistent with a single mannose residue, resulting from the hydrolysis

## CC(=O)N[C@H]1C(O)O[C@H](CO)[C@@H](O[C@@H]2O[C@H](CO[C@H]3O[C@H](CO[C@H]4O[C@H](CO)[C@@H](O)[C@H](O)[C@@H]4O)[C@@H](O)[C@H](O[C@H]4O[C@H](CO)[C@@H](O)[C@H](O)[C@@H]4O)[C@@H]3O)[C@@H](O)[C@H](O[C@H]3O[C@H](CO)[C@@H](O)[C@H](O)[C@@H]3O)[C@@H]2O)[C@@H]1O (some centres unmarked) [Man5GlcNAc]
NgtS [2]
  Ka: 1.04 (± 0.01)×10^6

## CC(=O)N[C@H]1[C@H](O[C@H]2[C@H](O)[C@@H](NC(C)=O)C(O)O[C@@H]2CO)O[C@H](CO)[C@@H](O[C@@H]2O[C@H](CO[C@H]3O[C@H](CO[C@H]4O[C@H](CO)[C@@H](O)[C@H](O)[C@@H]4O[C@H]4O[C@H](CO)[C@@H](O)[C@H](O)[C@@H]4O)[C@@H](O)[C@H](O[C@H]4O[C@H](CO)[C@@H](O)[C@H](O)[C@@H]4O[C@H]4O[C@H](CO)[C@@H](O)[C@H](O)[C@@H]4O)[C@@H]3O)[C@@H](O)[C@H](O[C@H]3O[C@H](CO)[C@@H](O)[C@H](O)[C@@H]3O[C@H]3O[C@H](CO)[C@@H](O)[C@H](O)[C@@H]3O[C@H]3O[C@H](CO)[C@@H](O)[C@H](O)[C@@H]3O)[C@@H]2O)[C@@H]1O (some centres unmarked) [Man9GlcNAc2]
SpGH92 [3]
  UPLC-MS: treatment of Man9GlcNAc2 with SpGH92 produced a glycan having a mass consistent with Man5GlcNAc2

## CC(=O)N[C@H]1C(O)O[C@H](CO)[C@@H](O[C@@H]2O[C@H](CO)[C@@H](O)[C@H](O)[C@@H]2O)[C@@H]1O (some centres unmarked) [Man1GlcNAc]
NgtS [4]
  Kd: 83.3 µM

B1: SpGH92 (SP_2145), α-(1,2)-mannosidase from Streptococcus pneumoniae TIGR4 (enzyme)
chain: MKPLLETIDTRFGTTNKHAFSRGNTLPYTGVPFGMNYFVPQTSDQDGSWFFDPHLPIFQGIRLTHQPSPWIGDYSWLLLTPVTSQLGGDSLFHRQSSYDIDKACFQPHYLKLFSLRYQIETQLTPTCYGASIRLNQKQGKALSLYLHAADELTVEQVDKRTLALRQEGKTETNKNSLTMFTALQMNTDILAISQEAGDWRIDLASSQTEMQLATSFISPSQALINLPQEDFDSCKSSAQVDWENLLHRFDIIETGEADRTFFDHCLYRLFLFPQTFYEINESGQAIHMDLATGTVKPGVLFSNNGFWDTFRTTFPLFALIIPEHYQRFLEGFLNSYRDTGFLPKWLAPDERGMMPGTLLDGIIADSACKDMTPDLEGELFQAMLETASKADPLGINGRHGLAQYQELGYLSTDHHESVSHTLDYAYSDFCIASCAKKLENIEIAETYKAASQNYRQLFDAETGYMRARDNQGNFHPDFSPYSWGRDYAECSAIQATLGVLHDIPGLIQLMGGKETFSNYLLKACQDAPLFETTGYGYEIHEMSEMATAPFGQIAISNQPSFHIPYLFRYSDYPDYTALLIKTLRQKAFHPSWEAYPGDEDNGSLSAWYIWSALGFYPTCPGKPSYDLGIPLFDHLRVYLAKEDKWLDIHTKQNHNHFNFVKECRLDKTLVSTIQHQDLLKAEQLTFTLSWLPSH
notes: SpGH92, family 92 glycoside hydrolase, S. pneumoniae TIGR4 locus tag SP_2145, amino acids 1-694, cloned in pET28a between NheI and XhoI; Tetramer with D2 symmetry in the crystal and in solution; theoretical molecular weight of the tetramer 325.96 kDa; source: E. coli BL21 Star (DE3), autoinduction, purified (Ni-NTA)
[5]
  stoichiometry N: 4
